What all share (format): cell-based, human
For assay [1], the system named is Mixed central nervous system neurons (CNS.4U). The assay is described as follows: iPSC-derived neuron viability, calcein-AM & H-33342 imaging. As to conditions: 24 h, at higher concentrations than LUHMES. As to the method:
(§1) Commercial preparation of iPSC-derived neurons (Cortex.4U and CNS.4U) were handled and used as described by the manufacturer (nCardia). In brief, plates were coated with 10 μg/ml PLO, 10 μg/ml laminin and 10 μg/ml fibronectin. Cells were thawed and immediately seeded onto 96-well plates in their respective culture media (Cortex.4U: Cortex.4U™ culture medium with Cortex.4U™ supplement; CNS.4U: Neuro.4U Basal Medium [Ax-M-NBM250] with Neuro-Supplement 2 [Ax-M-DCS-DA]) to be used in neurite outgrowth assays.
(§2) The assays were performed as described previously ([Hoelting et al., 2016]; [Klima et al., 2021]; [Krug et al., 2013]). In brief, 30′000 cells per well were seeded on d2 (LUHMES) / d0 (peripheral neurons, Cortex.4U, CNS.4U) in their respective differentiation media into standard pre-coated 96-well plates. They were incubated for 1 h at 37 °C and 5% CO2 before treatment. 24 h after treatment the Calcein/Hoechst readout was performed.
(§3) Neurite area (NA) and viability (V) were assessed as described previously ([Stiegler et al., 2011]). In brief, cells were stained with 1 μM calcein-AM and 1 μg/ml H-33342 for 30 min at 37 °C and 5% CO2. Image acquisition was performed using an Array-Scan VTI HCS Reader (Cellomics, PA, USA) equipped with a Hamamatsu ORCA-ER camera. 10 fields per well were imaged with 2 channels at 20x magnification (2×2 pixel binning). Excitation/emission wavelengths of 365 ± 50/535 ± 45 nm were used for Hoechst detection in channel 1 and 474 ± 40/535 ± 45 nm were used for calcein detection in channel 2.

For assay [2], the system named is Cortical neurons (Cortex.4U). The description is as above. How it is done: as §1, §2, §3
Assay [3] deals with mitochondrial respiration in LUHMES cells. The assay is described as follows: Seahorse assessment of mitochondrial respiratory parameters. To be noted: d3 LUHMES. As to the method:
The method was performed as described previously. ([Delp et al., 2018]) In brief, LUHMES cells were seeded on d2 into pre-coated Agilent Seahorse XFe24 well plates at a density of 100′000 cells/well in differentiation medium. On d3 the cells were analyzed in a Seahorse XF analyzer using the Mito stress test kit in accordance with the manufacturer’s instructions. In brief, 1 h prior to analysis the medium was changed to Seahorse XF base medium supplemented with 18 mM glucose, 2 mM glutamine and 1 mM pyruvate. The oxygen consumption rate (OCR) was measured to determine the basal respiration in untreated cells. After test compound injection the acute response was quantified. […] The addition of 0.5 μM rotenone and 0.5 μM antimycin A completely shut down mitochondrial respiration to quantify non-mitochondrial respiration. […] Image acquisition was performed using an Array-Scan VTI HCS Reader (Cellomics, PA, USA) equipped with a Hamamatsu ORCA-ER camera. […] Nuclei were identified and quantified depending on intensity, area, size and shape. According to pixel size and well size the total cell count was calculated and used for normalization of the OCR data. […]
A The effect of aerugine on respiratory function was analysed in d3 LUHMES cells. […] C Delp et al. (2019) determined the dependence of LUHMES cells on glycolysis and their mitochondria for ATP production in two different media conditions. […]

Entries after “also recorded” stand apart in the source; their conditions may differ.

Take `OCC1CSC(c2ccccc2O)=N1` (centres unmarked) [aerugine, 2-[4-(hydroxymethyl)-4,5-dihydro-1,3-thiazol-2-yl]phenol]: the results for the “effect on cell viability” value in assay [1] and in assay [2] (24 h) were “clearly affected by aerugine” and “sensitive to aerugine”, respectively. Also, the “fold higher toxic concentration than for DA neurons (mature LUHMES)” value in assay [2] (cortical neurons vs mature LUHMES) is “about 50 x”. Further, in assay [3], the “functional respiratory parameters (e.g. basal respiration, ATP production)” value is on record as “no significant difference was observed”. For the same compound, the “oxygen consumption rate (OCR)” value in assay [3] (various metabolic conditions) was “not different from control conditions; also recorded: No interaction”.
